The results in this text go back to patent US7064116B2, “GABAA modulating neurosteroids” (priority 2000, dated 2006).

Series [1] has as its target benzodiazepine site of the GABAA/BZ/chloride channel complex (rat brain GBR enriched synaptosomal preparation). The series can be described thus: Enhancement of [3H]-Flunitrazepam binding to the benzodiazepine site in rat brain synaptosomal membranes. The conditions noted are these: for EC50: enhancement of 1 nM [3H]-Flunitrazepam binding, 40 μg rat brain synaptosomal membrane, 30° C., 30 min; for Maximum stimulation: maximum stimulation of 1 nM [3H]-Flunitrazepam specific binding, normalized to control without test compound.

By EC50 is commonly meant the concentration needed to bring the measured effect to its halfway point. On to `COc1ccc(C#CC(O)[C@H]2CC[C@H]3[C@@H]4CC[C@H]5C[C@H](O)CC[C@]5(C)[C@H]4CC[C@]23C)cc1` (single isomer, unassigned) [17β-[1-hydroxy-3-(4-methoxyphenyl)-2-propynyl]-5α-androstan-3α-ol], for which, in series [1], the EC50 came out at 36.3 nM and the Maximum stimulation was 23.3%.
In the case of `C#CC(O)[C@H]1CC[C@H]2[C@@H]3CC[C@H]4CC(O)CC[C@]4(C)[C@H]3CC[C@]12C` (single isomer, unassigned) [17β-(1-hydroxy-2-propynyl)-5α-androstan-3-ol (less polar C-20 epimer), 17β-(1-hydroxy-2-propynyl)-5α-androstan-3-ol], the EC50 entry in series [1] was “inactive”.
One may read the melting point as the temperature, or range, at which the solid turns liquid. `COC(=O)C#C[C@H]1CC[C@H]2[C@@H]3CC[C@H]4C[C@H](O)CC[C@]4(C)[C@H]3CC[C@]12C` [17β-(2-methoxycarbonylethynyl)-5α-androstane-3α-ol] came in with a melting point of 135 to 137 °C. Besides, in series [1], the EC50 is 515 nM and the Maximum stimulation came to 55.6%.
In turn, `CC(=O)C#C[C@H]1CC[C@H]2[C@@H]3CC[C@H]4C[C@H](O)CC[C@]4(C)[C@H]3CC[C@]12C` [17β-(3-oxo-1-butynyl)-5α-androstan-3α-ol] had a melting point of 148 to 150 °C. For the same compound, the EC50 result in series [1] is “inactive”.
Compound `C=C=CC(O)[C@H]1CC[C@H]2[C@@H]3CC[C@H]4CC(O)CC[C@]4(C)[C@H]3CC[C@]12C` (mixture of isomers) [17β-(1-hydroxy-2,3-butadienyl)-5α-androstane-3ol (mixture of C-20 epimers), 17β-(1-hydroxy-2,3-butadienyl)-5α-androstane-3-ol] gave a melting point of 174 to 177 °C. Besides, in series [1], the EC50 turned out to be 5.9 nM and the Maximum stimulation is recorded as 45.8%.
For `CC(=O)[C@H]1CC[C@H]2[C@@H]3CC[C@H]4C[C@H](O)CC[C@]4(C)[C@H]3CC[C@]12C` [3α-hydroxy-5α-pregnan-20-one, reference compound], in series [1], the EC50 turned out to be 212 nM and the Maximum stimulation is 36%.
As for `C[C@]12CC[C@@H](O)C[C@@H]1CC[C@@H]1[C@@H]2CC[C@]2(C)[C@@H](C#CBr)CC[C@@H]12` [17β-(2-bromoethynyl)-5α-androstane-3α-ol], the melting point was in the range of 165 to 167 °C. Further, in series [1], the EC50 was 326 nM and the Maximum stimulation turned out to be 72.7%.
The like results for `Cc1ccc(C#C[C@H]2CC[C@H]3[C@@H]4CC[C@H]5C[C@H](O)CC[C@]5(C)[C@H]4CC[C@]23C)cc1` [17β-[2-(4-tolyl)ethynyl]-5α-androstane-3α-ol] were, in that order, 178 to 180 °C, 2380 nM and 52.6%.
Take `C#CC(OC)[C@H]1CC[C@H]2[C@@H]3CC[C@H]4C[C@H](O)CC[C@]4(C)[C@H]3CC[C@]12C` (mixture of isomers) [17β-(1-methoxy-2-propynyl)-5α-androstan-3α-ol (mixture of C-20 epimers), 17β-(1-methoxy-2-propynyl)-5α-androstan-3α-ol]: the melting point was in the range of 161 to 163 °C. In addition, in series [1], the EC50 came to 4.48 nM and the Maximum stimulation is 18.1%.
As to `CC(=O)[C@H]1CC[C@H]2[C@@H]3CC[C@H]4C[C@H](N=[N+]=[N-])CC[C@]4(C)[C@H]3CC[C@]12C` [3α-azido-5α-pregnan-20-one, 3α-Azido-5α-pregnan-20-one], the melting point is 159 to 162 °C. In addition, in series [1], the EC50 entry is “inactive”.
Consider `CC(O)C#C[C@H]1CC[C@H]2[C@@H]3CC[C@H]4C[C@H](O)CC[C@]4(C)[C@H]3CC[C@]12C` (stereo partly drawn) [17β-(3-hydroxy-1-butynyl)-5α-androstane-3α-ol], for which the melting point is 169 to 171 °C. Also, the EC50 result in series [1] was “inactive”.
On to `C[C@]12CC[C@@H](N=[N+]=[N-])C[C@@H]1CC[C@@H]1[C@@H]2CC[C@]2(C)[C@@H](C(=O)CN=[N+]=[N-])CC[C@@H]12` [3α,21-di-azido-5α-pregnan-20-one], for which the melting point lay within 133 to 135 °C. Besides, in series [1], the EC50 amounted to 314 nM and the Maximum stimulation is given as 16.4%.
Compound `C[C@]12CC[C@@H](N=[N+]=[N-])C[C@@H]1CC[C@@H]1[C@@H]2CC[C@]2(C)[C@@H](C(=O)CBr)CC[C@@H]12` displayed a melting point of 108 to 110 °C.
